Molecules are shown by their SMILES. In brackets after ≈: the same amount, converted by molar mass. Activity calls are given as the source filed them. The rule behind the calls is not given here.

One assay concerns Aedes aegypti. Nature of the assay: Larvicidal activity against fourth instar larvae of Aedes aegypti assessed as induction of alterations in pigmentation pattern at 100 ppm after 24 hrs by microscopic analysis. It is filed as functional, organism-based.
Take `O=C(O)CCc1cc(-c2ccccc2)no1`: the outcome was Active.
`O=C(O)CCc1nc(-c2ccc(Br)cc2)no1`: the result was Active.
Turning to `COC(=O)CCc1cc(-c2ccccc2)no1`, the result was Active.

For another assay, the system named is Aedes aegypti. Nature of the assay: Larvicidal activity against fourth instar larvae of Aedes aegypti assessed as mortality after 48 hrs. It is filed as functional.
One may read the LC50 as the concentration that kills 50% of the test population. As for `O=C(O)Cc1nc(-c2ccc(Br)cc2)no1`, the LC50 came to 67.9 µg/mL (≈ 240 µM).
Take `OCCCc1cc(-c2ccccc2)no1`: the 50% lethal concentration (LC50) is more than 100 µg/mL.
Still for that read-out and setting: the result for `O=C(O)Cc1nc(-c2ccc(Cl)cc2)no1` reads 49.3 µg/mL (≈ 207 µM).
As for `COc1ccc(-c2noc(CCC(=O)O)n2)cc1`, the LC50 was 71.5 µg/mL (≈ 288 µM).
Regarding `O=C(O)CCCc1nc(-c2ccccc2)no1`, the median lethal concentration (LC50) is 92.7 µg/mL (≈ 399 µM).
With `Cc1cccc(-c2noc(CCC(=O)O)n2)c1`, the LC50 amounted to 63.8 µg/mL (≈ 275 µM).
Consider `O=C(O)CCc1cc(-c2ccccc2)no1`, for which the LC50 worked out at 82.8 µg/mL (≈ 381 µM).
As to `O=C(O)CCCc1nc(-c2ccc3c(c2)OCO3)no1`, the 50% lethal concentration (LC50) stood at 72.9 µg/mL (≈ 264 µM).
In the case of `O=C(O)CCCc1nc(-c2ccc(I)cc2)no1`, the median lethal concentration (LC50) came to 16.2 µg/mL (≈ 45.2 µM).
With `O=C(O)CCc1nc(-c2ccc([N+](=O)[O-])cc2)no1`, the LC50 turned out to be 50.5 µg/mL (≈ 192 µM).
In the case of `O=C(O)CCc1nc(-c2ccc(Br)cc2)no1`, the LC50 stood at 15.2 µg/mL (≈ 51.2 µM).
On the same count and under the same terms, as for `O=C(O)CCc1nc(-c2ccccc2)no1`, the figure is 98.6 µg/mL (≈ 452 µM); as for `Cc1ccc(-c2noc(CCC(=O)O)n2)cc1`, 65.8 µg/mL (≈ 283 µM); as for `COC(=O)CCCc1nc(-c2ccccc2)no1`, 59.9 µg/mL (≈ 243 µM).
Consider `CC(=O)CCc1nc(-c2ccccc2)no1`, for which the median lethal concentration (LC50) was more than 100 µg/mL.
As for `O=C(O)CCc1nc(-c2ccc(F)cc2)no1`, the LC50 worked out at 81.2 µg/mL (≈ 344 µM).
As to `O=C(O)CCCc1nc(-c2ccc(Br)cc2)no1`, the 50% lethal concentration (LC50) worked out at 10.6 µg/mL (≈ 34.1 µM).
The same measure, in the same setting: the result for `COC(=O)CCc1nc(-c2ccccc2)no1` reads 30.6 µg/mL (≈ 132 µM).
As to `Cc1cccc(-c2noc(CCCC(=O)O)n2)c1`, the LC50 was 75.9 µg/mL (≈ 308 µM).
As to `COc1ccc(-c2noc(CCCC(=O)O)n2)cc1`, the LC50 is more than 100 µg/mL.
On the same count and under the same terms, as for `COC(=O)CCc1cc(-c2ccccc2)no1`, the figure is 13.2 µg/mL (≈ 57.1 µM); as for `O=C(O)CCCc1nc(-c2ccc(Cl)cc2)no1`, 34.9 µg/mL (≈ 131 µM).
With `COC(=O)CCCc1nc(-c2ccc(Cl)c(Cl)c2)no1`, the LC50 is 6.8 µg/mL (≈ 21.6 µM).
With `Cc1ccccc1-c1noc(CCC(=O)O)n1`, the 50% lethal concentration (LC50) was determined as 70.9 µg/mL (≈ 305 µM).
On to `O=C(O)Cc1nc(-c2ccccc2)no1`, for which the median lethal concentration (LC50) was more than 100 µg/mL.
In the case of `Cc1ccc(-c2noc(CC(=O)O)n2)cc1`, the median lethal concentration (LC50) is 92.3 µg/mL (≈ 423 µM).
Turning to `O=C(O)CCc1nc(-c2ccc(Cl)cc2)no1`, the LC50 was 28.1 µg/mL (≈ 111 µM).

The values are drawn from ChEMBL document CHEMBL2440091, “The enzyme 3-hydroxykynurenine transaminase as potential target for 1,2,4-oxadiazoles with larvicide activity against the dengue vector Aedes aegypti” (2013).
